Test results: US7618816B2, “Metal-binding therapeutic peptides” (Ontherix, Inc., priority 2005, dated 2009)
Values joined by “and” are separate entries in the source; they are usually repeats but may differ in a detail not shown here. Equal entries are not always repeated. Values belong to the molecule of their own block, whether it stands above or below them. Where a SMILES comes first, the peptide text is derived from it. Where no end group is shown, it is not given here. The star is where a group is joined. Biotin = O=C1N[C@H]2[C@H](CS[C@H]2CCCCC(=O)*)N1

Key:
[1] = system: cancer cells; assay: Selective cytotoxicity, cancer cells versus normal counterparts; assay type: cell-based, human
Description: (§1) Also, peptides such as NFKB and CSK are of interest, targeting stress-coping mechanisms such as inflammation. The breast cancer lines tested are HS578T, MX-1, MDA-MB231, MDA-MB435 and MCF7. Leukemia cell lines tested for cytotoxicity effects with these MBD-tagged peptides are CCRF-CEM, RPMI-8226 and MOLT-4. Overall, MCF-7 and CCRF-CEM yield the most consistent data and the strongest effect across the board (Table 12). In addition, elevated levels of cytotoxicity are observed when multiple peptides are combined while keeping the overall amount of peptide added constant. Cytotoxicity increases with the number of peptides added per cocktail and is further enhanced by combining peptide cocktail treatment with paclitaxel.

[2] = system: CCRF-CEM; assay: Cell survival, mutants of MDOKSH peptide; assay type: cell-based; details: for CELL SURVIVAL, CCRF-CEM: expressed relative to the activity of the parental peptide MDOKSH
Description: (§2) In order to maximize the effects of cytotoxic peptides, alanine scanning of one peptide (MDOKSH) was undertaken as an illustration. 48 mutants were synthesized, purified and tested in CCRF-CEM and MCF-7. The cytotoxicity of the 48 peptides was strongly correlated in the two cell line assay systems (r=0.606). […] The core MBD sequence may, if desired, be excluded from the region to be explored by mutagenesis, in order to expedite the experiment.

[3] = system: MCF-7; assay: Cell survival, mutants of MDOKSH peptide; assay type: cell-based; set-up: CELL SURVIVAL, MCF-7: unit not given here; details: for CELL SURVIVAL, MCF-7: expressed relative to the activity of the parental peptide MDOKSH
Description: as §2

[4] = system: MOLT-4; assay: Cytotoxicity of MBD therapeutic peptides; assay type: cell-based, human; details: relative to equal dose of control MBD peptide, only p < 0.05 shown, 1-4 experiments
Description: as §1

[5] = system: MDA-MB231; assay: Cytotoxicity of MBD therapeutic peptides; assay type: cell-based, human; details: relative to equal dose of control MBD peptide, only p < 0.05 shown, 1-4 experiments
Description: as §1

[6] = system: MCF-7; assay: Cytotoxicity of MBD therapeutic peptides; assay type: cell-based, human; details: relative to equal dose of control MBD peptide, only p < 0.05 shown, 1-4 experiments
Description: as §1

[7] = system: MDA-MB435; assay: Cytotoxicity of MBD therapeutic peptides; assay type: cell-based; details: relative to equal dose of control MBD peptide, only p < 0.05 shown, 1-4 experiments
Description: as §1

[8] = system: SR; assay: Cytotoxicity of MBD therapeutic peptides; assay type: cell-based; details: relative to equal dose of control MBD peptide, only p < 0.05 shown, 1-4 experiments
[9] = system: RPMI-8826; assay: Cytotoxicity of MBD therapeutic peptides; assay type: cell-based, human; details: relative to equal dose of control MBD peptide, only p < 0.05 shown, 1-4 experiments
Description: as §1

[10] = system: shRNA containing the lambda nutR hairpin loop; assay: Bio-KGF binding of shRNA on Ni-NTA plate, Ribogreen; details: for Ribogreen Fluorescence: mean of eight readings
Description: Peptide Bio-KGF binds shRNA: Bio-KGF peptide was synthesized by Genemed Synthesis, Inc. (S. San Francisco, Calif.) as a 40-mer containing an MBD sequence and an RNA-hairpin binding domain from the N-terminus of bacteriophage lambda N protein: Bio-KGF: (“N”-terminal biotin) . . . KGF YKK KQC RPS KGR KRG FCW AQT RRR ERR AEK QAQ WKA A . . . (“C” terminus) (SEQ ID NO: 11)
An shRNA designed to silence the human beclin gene was designed to include a hairpin sequence corresponding to the NutR box of bacteriophage lambda mRNA (the binding target for the Bio-KGF peptide) and was amplified using the Silencer™ siRNA
Various molar excess amounts of Bio-KGF (ranging from 63 pg to 2 ug per well; similar results were obtained across this range) were attached to a Ni-NTA plate (Qiagen Inc., Carlsbad, Calif. for 1 hour and blocked overnight with 3% BSA at 4 degrees C. in the refrigerator, and washed with PBS/Tween and TE buffers. RNA dilutions were added in TE buffer, incubated for 30 min on shaker, then for 30 min on bench at room temperature. After one wash with TE buffer, Ribogreen reagent (Ribogreen RNA Quantitation Reagent and Kit from Molecular Probes/Invitrogen) was added to the wells, incubated 5 minutes, and fluorescence was read on a fluorescent plate reader. The results are listed in Table 8 (each number is a mean of eight readings): […]

Molecule: CC(C)C[C@H](NC(=O)[C@H](CC(C)C)NC(=O)[C@H](CCCCN)NC(=O)[C@H](Cc1c[nH]c2ccccc12)NC(=O)[C@H](CC(C)C)NC(=O)[C@H](CC(=O)O)NC(=O)[C@H](CO)NC(=O)[C@H](Cc1ccccc1)NC(=O)[C@@H](NC(=O)[C@H](CCC(=O)O)NC(=O)CCCC[C@@H]1SC[C@@H]2NC(=O)N[C@@H]21)[C@@H](C)O)C(=O)N[C@@H](CCCCN)C(=O)N[C@@H](CCCCN)C(=O)NCC(=O)N[C@@H](Cc1ccccc1)C(=O)N[C@@H](Cc1ccc(O)cc1)C(=O)N[C@@H](CCCCN)C(=O)N[C@@H](CCCCN)C(=O)N[C@@H](CCCCN)C(=O)N[C@@H](CCC(N)=O)C(=O)N[C@@H](CS)C(=O)N[C@@H](CCCNC(=N)N)C(=O)N1CCC[C@H]1C(=O)N[C@@H](CO)C(=O)N[C@@H](CCCCN)C(=O)NCC(=O)N[C@@H](CCCNC(=N)N)C(=O)N[C@@H](CCCCN)C(=O)N[C@@H](CCCNC(=N)N)C(=O)NCC(=O)N[C@@H](Cc1ccccc1)C(=O)N[C@@H](CS)C(=O)N[C@@H](Cc1c[nH]c2ccccc12)C(=O)O [PEP-1] (Biotin-ETFSDLWKLLKKGFYKKKQCRPSKGRKRGFCW-OH)
Cytotoxic effect on cancer cells versus normal counterparts (in words) [1]: strong cytotoxic effect on cancer cells but not their human counterparts

Molecule: KKGFYKKKQCRPSKGRKRGFCWAPLYWDLYE [Mutant 28]
CELL SURVIVAL, CCRF-CEM [2]: 60.1 ± 11.1 | CELL SURVIVAL, MCF-7 [3]: 52.7 ± 11.7

Molecule: KKGFYKKKQCRPSKGRKRGFCWKPLYWDLYEP [Mutant 11]
CELL SURVIVAL, CCRF-CEM [2]: 64.8 ± 7.2 | CELL SURVIVAL, MCF-7 [3]: 59.6 ± 10.7

Molecule: KKGFYKKKQCRPSKGRKRGFCWKPLYWALYE [Mutant 23]
CELL SURVIVAL, CCRF-CEM [2]: 74.5 ± 8.0 | CELL SURVIVAL, MCF-7 [3]: 58.8 ± 8.1

Molecule: CC[C@H](C)[C@H](NC(=O)[C@H](CC(=O)O)NC(=O)[C@H](CO)NC(=O)[C@H](Cc1ccccc1)NC(=O)[C@@H](NC(=O)[C@H](CCC(=O)O)NC(=O)CCCC[C@@H]1SC[C@@H]2NC(=O)N[C@@H]21)[C@@H](C)O)C(=O)N[C@@H](Cc1c[nH]c2ccccc12)C(=O)N[C@@H](CCCCN)C(=O)N[C@@H](CC(C)C)C(=O)N[C@@H](CC(C)C)C(=O)N[C@@H](CCCCN)C(=O)N[C@@H](CCCCN)C(=O)NCC(=O)N[C@@H](Cc1ccccc1)C(=O)N[C@@H](Cc1ccc(O)cc1)C(=O)N[C@@H](CCCCN)C(=O)N[C@@H](CCCCN)C(=O)N[C@@H](CCCCN)C(=O)N[C@@H](CCC(N)=O)C(=O)N[C@@H](CS)C(=O)N[C@@H](CCCNC(=N)N)C(=O)N1CCC[C@H]1C(=O)N[C@@H](CO)C(=O)N[C@@H](CCCCN)C(=O)NCC(=O)N[C@@H](CCCNC(=N)N)C(=O)N[C@@H](CCCCN)C(=O)N[C@@H](CCCNC(=N)N)C(=O)NCC(=O)N[C@@H](Cc1ccccc1)C(=O)N[C@@H](CS)C(=O)N[C@@H](Cc1c[nH]c2ccccc12)C(=O)O [PEP-3] (Biotin-ETFSDIWKLLKKGFYKKKQCRPSKGRKRGFCW-OH)
% viability @ 48 hr/25 ug/ml peptide, MOLT-4 [4]: 73.0 ± 5.5% and 58.3 ± 16.5% | % viability @ 48 hr/25 ug/ml peptide, MDA-MB231 [5]: 32.9 ± 1.7% | % viability @ 48 hr/25 ug/ml peptide, MCF-7 [6]: 27.5 ± 15.2% and 30.6 ± 5.7% and 21.7 ± 1.5% | % viability @ 48 hr/25 ug/ml peptide, MDA-MB435 [7]: 16.0 ± 2.0% and 27.0 ± 3.9% | % viability @ 48 hr/25 ug/ml peptide, SR [8]: 75.9 ± 15.7% | Cytotoxic effect on cancer cells versus normal counterparts (in words) [1]: strong cytotoxic effect on cancer cells but not their human counterparts

Molecule: CC(C)C[C@H](NC(=O)[C@H](C)NC(=O)[C@H](CCCCN)NC(=O)[C@H](Cc1c[nH]c2ccccc12)NC(=O)[C@H](CS)NC(=O)[C@H](Cc1ccccc1)NC(=O)CNC(=O)[C@H](CCCNC(=N)N)NC(=O)[C@H](CCCCN)NC(=O)[C@H](CCCNC(=N)N)NC(=O)CNC(=O)[C@H](CCCCN)NC(=O)[C@H](CO)NC(=O)[C@@H]1CCCN1C(=O)[C@H](CCCNC(=N)N)NC(=O)[C@H](CS)NC(=O)[C@H](CCC(N)=O)NC(=O)[C@H](CCCCN)NC(=O)[C@H](CCCCN)NC(=O)[C@H](CCCCN)NC(=O)[C@H](Cc1ccc(O)cc1)NC(=O)[C@H](Cc1ccccc1)NC(=O)CNC(=O)[C@H](CCCCN)NC(=O)[C@H](CCCCN)NC(=O)CCCC[C@@H]1SC[C@@H]2NC(=O)N[C@@H]21)C(=O)N[C@@H](Cc1ccc(O)cc1)C(=O)N[C@@H](Cc1c[nH]c2ccccc12)C(=O)N[C@@H](CC(=O)O)C(=O)N[C@@H](CC(C)C)C(=O)N[C@@H](Cc1ccc(O)cc1)C(=O)N[C@@H](CCC(=O)O)C(=O)O [Mutant 27] (Biotin-KKGFYKKKQCRPSKGRKRGFCWKALYWDLYE-OH)
Cytotoxicity versus parental MDOKSH (in words) ([2]; CCRF-CEM): greatly enhanced cytotoxicity | Cytotoxicity versus parental MDOKSH (in words) ([3]; MCF-7): greatly enhanced cytotoxicity

Molecule: Biotin-KKGFYKKKQCRPSKGRKRGFCWARIDDMSSRIDDLEKNIADL (cysteines drawn unpaired) [M9HSBP1]
% viability @ 48 hr/25 ug/ml peptide, RPMI-8826 [9]: 77.7 ± 5.2% | % viability @ 48 hr/25 ug/ml peptide, MOLT-4 [4]: 77.1 ± 20.3%

Molecule: KKGFYKKKQCRPSKGRKRGFCWKPLYWDLYEI [Mutant 6]
CELL SURVIVAL, CCRF-CEM [2]: 62.3 ± 5.0 | CELL SURVIVAL, MCF-7 [3]: 68.5 ± 6.5

Binding of shRNA (in words) [10]: binds the shRNA | Ribogreen Fluorescence ([10]; 2.7 ng shRNA per well): 853 ± 600 | Ribogreen Fluorescence ([10]; 5.5 ng shRNA per well): 2058 ± 781 | Ribogreen Fluorescence ([10]; 11 ng shRNA per well): 6016 ± 2977 | Ribogreen Fluorescence ([10]; 22 ng shRNA per well): 11924 ± 3650 | Ribogreen Fluorescence ([10]; 44 ng shRNA per well): 42053 ± 12769 | Ribogreen Fluorescence ([10]; 88 ng shRNA per well): 81819 ± 24656
Molecule: KGF YKK KQC RPS KGR KRG FCW AQT RRR ERR AEK QAQ WKA A (Biotin-KGFYKKKQCRPSKGRKRGFCWAQTRRRERRAEKQAQWKAA; cysteine pairing not given here) [Bio-KGF]

Molecule: AKGFYKKKQCRPSKGRKRGFCWKPLYWDLYE [Mutant 48]
CELL SURVIVAL, CCRF-CEM [2]: 71.8 ± 10.7 | CELL SURVIVAL, MCF-7 [3]: 61.6 ± 3.1

Molecule: KKGFYKKKQCRPSKGRKRGFCWKPLYWDLYEM [Mutant 9]
CELL SURVIVAL, CCRF-CEM [2]: 63.8 ± 4.6 | CELL SURVIVAL, MCF-7 [3]: 56.8 ± 8.1

Molecule: CC(C)C[C@H](NC(=O)[C@H](CC(=O)O)NC(=O)[C@H](Cc1c[nH]c2ccccc12)NC(=O)[C@H](Cc1ccc(O)cc1)NC(=O)[C@H](CC(C)C)NC(=O)[C@@H]1CCCN1C(=O)[C@H](CCCCN)NC(=O)[C@H](Cc1c[nH]c2ccccc12)NC(=O)[C@H](CS)NC(=O)[C@H](Cc1ccccc1)NC(=O)CNC(=O)[C@H](CCCNC(=N)N)NC(=O)[C@H](CCCCN)NC(=O)[C@H](CCCNC(=N)N)NC(=O)CNC(=O)[C@H](CCCCN)NC(=O)[C@H](CO)NC(=O)[C@@H]1CCCN1C(=O)[C@H](CCCNC(=N)N)NC(=O)[C@H](CS)NC(=O)[C@H](CCC(N)=O)NC(=O)[C@H](CCCCN)NC(=O)[C@H](CCCCN)NC(=O)[C@H](CCCCN)NC(=O)[C@H](Cc1ccc(O)cc1)NC(=O)[C@H](Cc1ccccc1)NC(=O)CNC(=O)[C@H](CCCCN)NC(=O)[C@H](CCCCN)NC(=O)CCCC[C@@H]1SC[C@@H]2NC(=O)N[C@@H]21)C(=O)N[C@@H](Cc1ccc(O)cc1)C(=O)N[C@@H](CCC(=O)O)C(=O)O [MDOKSH] (Biotin-KKGFYKKKQCRPSKGRKRGFCWKPLYWDLYE-OH)
CELL SURVIVAL, CCRF-CEM [2]: 100 | CELL SURVIVAL, MCF-7 [3]: 100
